Results as given in the supplement of paper PMC10627819.

How the values were obtained:
Test in all cases: fitness (endpoint OD595 vs no drug) (fraction); higher = more growth
[1] = tested on: B. subtilis 168
Method in brief: (§1)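 In 384-well plates at 37 °C, cultures began at OD595 0.01 in 30 µl, with 55 µl used for S. pneumoniae. OD595 readings every 30 min for 14 h were corrected by the first reading. Fitness divides the stationary-phase transition optical density by the robust mean of no-drug control wells. The result is capped at 1.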

[2] = tested on: S. aureus DSM 20231
Method in brief: as §1

[3] = tested on: S. pneumoniae D39V
Method in brief: as §1

[4] = tested on: S. aureus Newman
Method in brief: as §1
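Further: OD595 on entry to stationary phase over no-drug wells; at most 1.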

CN(C)[C@@H]1C(O)=C(C(N)=O)C(=O)[C@@]2(O)C(O)=C3C(=O)c4c(O)ccc(Cl)c4[C@@](C)(O)[C@H]3C[C@@H]12 [Chlortetracycline] + COc1ccc(C[C@H](N)C(=O)N[C@H]2[C@@H](O)[C@H](n3cnc4c(N(C)C)ncnc43)O[C@@H]2CO)cc1 [Puromycin]
fitness
Settings | partner 0.39 µg/mL | partner 0.78 µg/mL | partner 1 µg/mL | partner 1.56 µg/mL | partner 2 µg/mL | partner 4 µg/mL
[1], first compound 0.0475 µg/mL | 0.858 | 0.901 | – | 0.904 | – | –
[1], first compound 0.095 µg/mL | 0.741 | 0.728 | – | 0.671 | – | –
[1], first compound 0.19 µg/mL | 0.512 | 0.459 | – | 0.351 | – | –
[2], first compound 0.012 µg/mL | 0.567 | 0.589 | – | 0.497 | – | –
[2], first compound 0.024 µg/mL | 0.2 | 0.217 | – | 0.137 | – | –
[2], first compound 0.048 µg/mL | 0.053 | 0.171 | – | 0.0612 | – | –
[3], first compound 0.375 µg/mL | – | – | 0.0657 | – | 0.0757 | 0.0703
[3], first compound 0.75 µg/mL | – | – | 0.0562 | – | 0.0783 | 0.0776
[3], first compound 1.5 µg/mL | – | – | 0.0348 | – | 0.0557 | 0.0492

fitness, one replicate
Settings | first compound 0.006 µg/mL | first compound 0.012 µg/mL | first compound 0.024 µg/mL | first compound 0.048 µg/mL
[2], partner 0.39 µg/mL | 0.853 | – | – | –
[2], partner 0.78 µg/mL | 0.847 | – | – | –
[2], partner 1.56 µg/mL | 0.731 | – | – | –
[2], partner 3.12 µg/mL | – | 0.325 | 0.0559 | 0.0249
[2], partner 6.24 µg/mL | – | 0.0809 | 0.0524 | 0.0264
[3], partner 1 µg/mL | – | 0.822 | 0.875 | 0.647
[3], partner 2 µg/mL | – | 0.793 | 0.773 | 0.453
[3], partner 4 µg/mL | – | 0.619 | 0.606 | 0.171

CN(C)[C@@H]1C(O)=C(C(N)=O)C(=O)[C@@]2(O)C(O)=C3C(=O)c4c(O)ccc(Cl)c4[C@@](C)(O)[C@H]3C[C@@H]12 [Chlortetracycline] + C[n+]1ccc(-c2cc[n+](C)cc2)cc1 [Paraquat]
fitness
Settings | partner 1.25 µg/mL | partner 1.5 µg/mL | partner 2.5 µg/mL | partner 3 µg/mL | partner 5 µg/mL | partner 6 µg/mL
[1], first compound 0.0475 µg/mL | 0.92 | – | 0.877 | – | 0.839 | –
[1], first compound 0.095 µg/mL | 0.805 | – | 0.748 | – | 0.715 | –
[1], first compound 0.19 µg/mL | 0.609 | – | 0.524 | – | 0.429 | –
[2], first compound 0.012 µg/mL | 0.568 | – | 0.597 | – | 0.574 | –
[2], first compound 0.024 µg/mL | 0.266 | – | 0.294 | – | 0.261 | –
[2], first compound 0.048 µg/mL | 0.0591 | – | 0.169 | – | 0.0904 | –
[3], first compound 0.375 µg/mL | – | 0.073 | – | 0.0531 | – | 0.0597
[3], first compound 0.75 µg/mL | – | 0.055 | – | 0.0649 | – | 0.0514
[3], first compound 1.5 µg/mL | – | 0.048 | – | 0.0551 | – | 0.0491

fitness, one replicate
Settings | partner 1.25 µg/mL | partner 1.5 µg/mL | partner 2.5 µg/mL | partner 3 µg/mL | partner 5 µg/mL | partner 6 µg/mL
[2], first compound 0.006 µg/mL | 0.72 | – | 0.718 | – | 0.704 | –
[3], first compound 0.012 µg/mL | – | 0.976 | – | ≥ 1 | – | ≥ 1
[3], first compound 0.024 µg/mL | – | 0.941 | – | 0.95 | – | 0.987
[3], first compound 0.048 µg/mL | – | 0.852 | – | 0.868 | – | 0.875

CO/N=C(\C(=O)N[C@@H]1C(=O)N2C(C(=O)O)=C(COC(C)=O)CS[C@H]12)c1csc(N)n1 [Cefotaxime] + N[C@@H]1CONC1=O [Cycloserine D]
fitness, [1], one replicate
Settings | first compound 0.00775 µg/mL | first compound 0.0155 µg/mL | first compound 0.031 µg/mL | first compound 0.0625 µg/mL | first compound 0.125 µg/mL | first compound 0.25 µg/mL
partner 0.125 µg/mL | 0.876 | 0.666 | 0.554 | 0.498 | 0.353 | 0.296
partner 0.25 µg/mL | 0.888 | 0.756 | 0.561 | 0.524 | 0.401 | 0.31
partner 0.5 µg/mL | 0.802 | 0.733 | 0.566 | 0.477 | 0.363 | 0.267

Settings | fitness
[1], first compound 0.5 µg/mL, partner 0.125 µg/mL | 0.333
[1], first compound 0.5 µg/mL, partner 0.25 µg/mL | 0.28
[1], first compound 1 µg/mL, partner 0.125 µg/mL | 0.162
[1], first compound 1 µg/mL, partner 0.25 µg/mL | 0.169
[1], first compound 1 µg/mL, partner 0.5 µg/mL | 0.162
[1], first compound 2 µg/mL, partner 0.125 µg/mL | 0.16
[1], first compound 2 µg/mL, partner 0.25 µg/mL | 0.182
[1], first compound 2 µg/mL, partner 0.5 µg/mL | 0.15
[2], first compound 0.039 µg/mL, partner 0.375 µg/mL | 0.822
[2], first compound 0.039 µg/mL, partner 0.75 µg/mL | 0.822
[2], first compound 0.039 µg/mL, partner 1.5 µg/mL | 0.835
[2], first compound 0.078 µg/mL, partner 0.375 µg/mL | 0.789
[2], first compound 0.078 µg/mL, partner 0.75 µg/mL | 0.853
[2], first compound 0.078 µg/mL, partner 1.5 µg/mL | 0.748
[2], first compound 0.156 µg/mL, partner 0.375 µg/mL | 0.736
[2], first compound 0.156 µg/mL, partner 0.75 µg/mL | 0.772
[2], first compound 0.156 µg/mL, partner 1.5 µg/mL | 0.696
[2], first compound 0.312 µg/mL, partner 0.375 µg/mL | 0.652
[2], first compound 0.312 µg/mL, partner 0.75 µg/mL | 0.638
[2], first compound 0.312 µg/mL, partner 1.5 µg/mL | 0.584
[4], first compound 0.078 µg/mL, partner 0.375 µg/mL | 0.736
[4], first compound 0.078 µg/mL, partner 0.75 µg/mL | 0.828
[4], first compound 0.078 µg/mL, partner 1.5 µg/mL | 0.785
[4], first compound 0.156 µg/mL, partner 0.375 µg/mL | 0.601
[4], first compound 0.156 µg/mL, partner 0.75 µg/mL | 0.604
[4], first compound 0.156 µg/mL, partner 1.5 µg/mL | 0.629
[4], first compound 0.312 µg/mL, partner 0.375 µg/mL | 0.345
[4], first compound 0.312 µg/mL, partner 0.75 µg/mL | 0.326
[4], first compound 0.312 µg/mL, partner 1.5 µg/mL | 0.305
[4], first compound 0.625 µg/mL, partner 0.375 µg/mL | 0.186
[4], first compound 0.625 µg/mL, partner 0.75 µg/mL | 0.121
[4], first compound 0.625 µg/mL, partner 1.5 µg/mL | 0.0813
[4], first compound 1.25 µg/mL, partner 0.375 µg/mL | 0.0332
[4], first compound 1.25 µg/mL, partner 0.75 µg/mL | 0.0383
[4], first compound 1.25 µg/mL, partner 1.5 µg/mL | 0.0209
[4], first compound 2.5 µg/mL, partner 0.375 µg/mL | 0.0595
[4], first compound 2.5 µg/mL, partner 0.75 µg/mL | 0.0506
[4], first compound 2.5 µg/mL, partner 1.5 µg/mL | 0.0484
